From patent US20130096321A1, “CRYSTALLINE ROTIGOTINE BASE AND PREPARATION PROCESS THEREFOR” (CHEMAGIS LTD., priority 2007, published 2013)

Assay: Thermogravimetric analysis (TGA) of rotigotine base crystalline Form I
Format: physicochemical
Details: platinum baskets, heating rate 5° C./minute, FIG. 4
Protocol: Rotigotine base crystalline form I produces a TGA curve as depicted in FIG. 4. […] The TGA measurement was performed using a TA instruments Q500 Thermal analyzer with Universal Software (version 3.88). Samples were analyzed inside platinum baskets at heating rate of 5° C./minute.

## CCCN(CCc1cccs1)[C@H]1CCc2c(O)cccc2C1 [crystalline rotigotine base Form I, (S)-(−)-5-hydroxy-2-(N-n-propyl-N-2-thienylethyl)-aminotetralin]
  decomposition on heating (from TGA curve): does not decompose on heating
  thermal stability (from TGA curve): thermally stable
